# “And” between values parts separate entries of the source, which are not always exact repeats. Equal values may be shown once. Where a name gives a salt, the structure may show the parent alone. Read-outs that look alike come from different tables or passages of the source.
# Key:
# [1] = tested on: reflux esophagitis in rats; assay: Effects on reflux esophagitis in rats; assay type: in vivo, Wistar rats; set-up: Esophagitis index: scale not given here; details: for Protection effect on reflux esophagitis in rats (conclusion): in comparison with the model group; for Esophagitis index / Esophagus injury score / Injury status: 20 mg/kg through duodenum, 5 h; for Esophagitis index: 6 rats per group, average ± SD; for Esophagus injury score / Injury status: individual rats
# Procedure: The rats were etherized, laparotomized, pylorus ligated, and ligated at the part between glandular stomach and rumen. After ligation, the drugs were immediately administered through duodenum, in which the groups of the test samples were administered with test samples in 20 mg/kg, the model group was administered with the same volume of solvent, and the abdomens were then closed. The rats were released to the fasting cage, subjected to fasting and water deprivation for 5 h and then executed by air embolism. The stomach and esophagus were taken out together, fixed with 1% formaldehyde in esophagus for 1 h, and then the injury of esophagus was observed.
# [2] = tested on: gastric acid in pylorus ligated rats; assay: Inhibition effects on gastric acid in pylorus ligated rats; assay type: in vivo, Wistar rats; details: for Inhibition effect on the gastric acid secretion in pylorus ligated rats (conclusion): in comparison with the solvent group
# Procedure: Experimental animals: six-week old clean Wistar rats, male, 140-180 g.
# Experimental samples: part of the compounds of the present invention, which structural formula and chemical name are shown in Table 1. […] Before test, these compounds were dissolved with physiological saline.
# Pylorus was ligated by passing a suture beneath gastric pylorus, the drugs were immediately administered through duodenum, in which the solvent group was administered with physiological saline in 2 mL/kg, […] The animals were executed after 6 h, laparotomized, esophagus was ligated near to diaphragmatic muscle, whole stomach was taken out, washed to remove blood, stomach contents were poured out, the acidity degree of gastric acid was tested with pH test paper, the stomach contents was then centrifuged at 3000 rpm for 10 min. The volume of the supernatant was metered, and 1 mL of the supernatant was titrated with 0.01 mol/L NaOH solution, phenolphthalein was used as indicator, the volume of NaOH was recorded, and the total acidity degree and total acid output of gastric juice were calculated. Gastric juice total acidity degree (mmol/L)=consumed volume of NaOH solution (mL)*0.01 mol/L (NaOH concentration)/1 mL (supernatant volume)*1000; 1 h total acid output (mmol/h)=total acidity degree (mmol/L)*gastric juice volume (mL)/6 h/1000.
# [3] = In vivo pharmacokinetic test in rats; set-up: species or system Wistar rats; details: for Vd / clearance / half-life: iv
# Procedure: Experimental animals: male Wistar rats, 6 rats/compound, body weight 180-220 g, purchased from Shandong University, certificate no.: SCXK ( ? ) 20090001.
# Experimental samples: Compound 1, Compound 29 and Compound 30 of the present invention, each of them is prepared according to the methods of the above examples, and dissolved in physiological saline before test.
# Administration: as for intravenous push (I.V), Compound 1, Compound 29, Compound 30 were administered in a dose of 5 mg/kg, and a volume of 2 mL/kg; as for intragastric administration (P.O), Compound 1, Compound 29, Compound 30 were administered in a dose of 5 mg/kg, and a volume of 2 mL/kg. The rats were fasted without water deprivation for […] administration, and fed after 4 hours from the administration.
# Blood collection: 0 h, 0.083 h, 0.25 h, 0.5 h, 1 h, 2 h, 4 h, 8 h, 24 h, at each time point, about 150 μL of whole blood was collected, centrifuged at 4° C. and 8000 rpm for 6 min using a low-temperature high-speed centrifuge, the separated plasma was frozen and stored at −80° C. in a refrigerator.
# Analysis of plasma samples: as for Compound 1, Compound 29, Compound 30, 50 μL of plasma was taken, added with 120 μL internal standard solution (Tolbutamide, 5 ng/mL MeOH solution), subjected to 1500 rpm vortex for 2 min, then centrifuged at 14000 rpm for 5 min, the supernatant was collected, and analyzed by using LC-MS/MS. Calculation formula: absolute bioavailability F %=[AUC]INF(PO)*Dose(IV)/[AUC]INF(IV)*Dose(PO)
# Wherein, AUCINF represents area under drug-time curve0→∞; Cmax represents peak drug concentration in blood; Tmax represents a time for reaching peak drug concentration in blood; F % represents absolute bioavailability; CL represents clearance rate; Vss represents apparent volume of distribution; T1/2 represents half-life period.
# gastric acid = details: cited from earlier work
# gastric acid secretion = details: cited from earlier work
# [4] = Table 3, 20 mg/kg through duodenum, 6 h after pylorus ligation
# [5] = Table 3, 20 mg/kg through duodenum, 6 h after pylorus ligation, average ± SD
# [6] = Table 4, 30 mg/kg through duodenum, 6 h
# [7] = Table 4, 30 mg/kg through duodenum, 6 h, SD in neighbouring cell
# [8] = male, Wistar, rat, in vivo, 5 mg/kg
# [9] = male, Wistar, rat, in vivo, po, 5 mg/kg
# [10] = Table 5, 20 mg/kg, comparison with Compound 81 as control
smiles,measurement,setting,value
"COCCCOc1ccnc(C[S+]([O-])c2nc3cc4c(cc3[nH]2)OCC4)c1C (stereo not shown) [Compound 1, 2-[[4-(3-methoxylpropoxy)-3-methylpyridin-2-yl]methylsulfinyl]-6,7-dihydro-3H-benzofuro[5,6-d]imidazole]",Protection effect on reflux esophagitis in rats (conclusion),[1]; 20 mg/kg,good protection effects on esophagus
same,Inhibition effect on the gastric acid secretion in pylorus ligated rats (conclusion),[2]; 20 mg/kg,significant inhibition effect
same,In vivo pharmacokinetic properties (conclusion),"[3]; rat, in vivo",good in vivo pharmacokinetic properties
COCCCOc1ccnc(C[S+]([O-])c2nc3cc4c(cc3[nH]2)OCCO4)c1C (stereo not shown) [Compound 6 (sodium salt)],Esophagitis index,[1],3.00 ± 1.27
same,Esophagus injury score,"[1]; 20 mg/kg, female rats",4 (4 scores for injury area exceeding 75% or perforation) and 2 (2 scores for injury area of 25-50%) and 1 (1 score for injury area of 1-25%)
same,Esophagus injury score,"[1]; 20 mg/kg, male rats",3 (3 scores for injury area of 50-75%) and 4 (4 scores for injury area exceeding 75% or perforation) (2×)
same,Gastric juice volume,[2]; [4],10.28 mL
same,Total acid output,[2]; [4],0.0807 mmol/h
same,Total acidity degree,[2]; [4],103.16 mmol/L
same,Acidity degree (pH value),[2]; [5],1.82 pH value
"COCCCOc1ccnc(C[S@@+]([O-])c2nc3cc4c(cc3[nH]2)OCC4)c1C [Compound 30 (sodium salt), (R)-2-[[[4-(3-methoxylpropoxy)-3-methyl-2-pyridyl]methyl]sulfinyl]-6,7-dihydro-3H-benzofuro[5,6-d]imidazole sodium]",Gastric juice volume,[2]; [6],3.60 ± 1.30 mL
same,Volume of supernatant of gastric juice,[2]; [6],2.87 ± 1.17 mL
same,Acidity degree (pH value),[2]; [7],6.08 pH value
same,Total acid output,[2]; [7],0.0076 mmol/h
same,Total acidity degree,[2]; [7],17.21 mmol/L
same,Vd,[3]; [8],0.394 L/kg
same,clearance,[3]; [8],26.5 mL/min/kg
same,half-life,[3]; [8],16.5 min
same,AUC(0-inf),[3]; [9],1260 ng·h/mL
same,CL,[3]; [9],83.5 mL/min/kg
same,Cmax,[3]; [9],3250 ng/mL
same,Tmax,[3]; [9],4.98 to 15 min
same,bioavailability,[3]; [9],39.3%
COCCCOc1ccnc(C[S+]([O-])c2nc3ccccc3[nH]2)c1C (stereo not shown) [Rabeprazole],Time to achieve the maximum acid inhibition effect,gastric acid,≤ 5 min
same,Duration of action,gastric acid; compared with Omeprazole,shorter than that of Omeprazole
same,Activity against gastric acid secretion in vitro relative to Omeprazole,gastric acid secretion,2-10 times
"COCCCOc1ccnc(C[S@@+]([O-])c2nc3cc4c(cc3[nH]2)OCC4)c1C [Compound 30, (R)-2-[[[4-(3-methoxylpropoxy)-3-methyl-2-pyridyl]methyl]sulfinyl]-6,7-dihydro-3H-benzofuro[5,6-d]imidazole]",In vivo pharmacokinetic properties (conclusion),"[3]; rats, Tables 8 and 9",good in vivo pharmacokinetic properties
COCCCOc1ccnc(C[S+]([O-])c2nc3cc4c(cc3[nH]2)OCC4)c1C (stereo not shown) [Compound 1 (sodium salt)],Esophagitis index,[1],0.00 ± 0.00
same,Esophagus injury score,[1]; female rats,0
same,Injury status,[1]; female rats,Normal
same,Esophagus injury score,[1]; male rats,0
same,Injury status,[1]; male rats,Normal
same,Gastric juice volume,[2]; [4],3.33 ± 0.97 mL
same,Total acid output,[2]; [4],0.0276 ± 0.0194 mmol/h
same,Total acidity degree,[2]; [4],47.85 ± 24.38 mmol/L
same,Acidity degree (pH value),[2]; [5],3.14 ± 1.31 pH value
same,Gastric juice volume,[2]; [6],3.60 ± 0.88 mL
same,Volume of supernatant of gastric juice,[2]; [6],2.92 ± 0.71 mL
same,Acidity degree (pH value),[2]; [7],3.90 pH value
same,Total acid output,[2]; [7],0.0141 mmol/h
same,Total acidity degree,[2]; [7],28.98 mmol/L
same,Total acidity degree,[2]; [10],54.52 ± 13.87 mmol/L
same,clearance,"[3]; male, Wistar, rat, plasma, rats, I.V, 5 mg/kg, read-out: CL (converted)",32.5 mL/min/kg
same,half-life,"[3]; male, Wistar, rat, plasma, rats, I.V, 5 mg/kg, read-out: T½ (converted)",10.3 min
same,Vd,"[3]; male, Wistar, rat, plasma, rats, I.V, 5 mg/kg, read-out: Vss",0.255 L/kg
same,bioavailability,"[3]; male, Wistar, rat, plasma, po, rats, P.O 5 mg/kg vs I.V 5 mg/kg, read-out: F % (absolute bioavailability)",26.2%
same,AUC(0-inf),"[3]; male, Wistar, rat, plasma, po, rats, P.O, 5 mg/kg, read-out: AUCinf",677 ng·h/mL
same,Cmax,"[3]; male, Wistar, rat, plasma, po, rats, P.O, 5 mg/kg, read-out: Cmax",1860 ng/mL
same,Tmax,"[3]; male, Wistar, rat, plasma, po, rats, P.O, 5 mg/kg, read-out: Tmax",4.98 to 15 min
"COCCCOc1ccnc(C[S+]([O-])c2nc3cc4c(cc3[nH]2)OCCO4)c1C (stereo not shown) [Compound 6, 2-[[4-(3-methoxylpropoxy)-3-methylpyridin-2-yl]methylsulfinyl]-6,7-dihydro-1H-[1,4]dioxino[2,3-f]benzo[d]imidazole]",Protection effect on reflux esophagitis in rats (conclusion),[1]; 20 mg/kg,no protection effect
same,Inhibition effect on the gastric acid secretion in pylorus ligated rats (conclusion),[2]; 20 mg/kg,do not show inhibition effect
"COc1c(C)cnc(C[S+]([O-])c2nc3cc4[nH]cnc4cc3[nH]2)c1C (stereo not shown) [Compound 8, 2-[(3,5-dimethyl-4-methoxylpyridin-2-yl)methylsulfinyl]-1H,5H-imidazo[5,4-f]benzo[d]imidazole]",Inhibition effect on the gastric acid secretion in pylorus ligated rats (conclusion),[2]; 20 mg/kg,do not show inhibition effect
same,Gastric juice volume,[2]; [4],6.10 mL
same,Total acid output,[2]; [4],0.1242 mmol/h
same,Total acidity degree,[2]; [4],120.92 mmol/L
same,Acidity degree (pH value),[2]; [5],1.71 pH value
"COCCCOc1ccnc(C[S@+]([O-])c2nc3cc4c(cc3[nH]2)OCC4)c1C [Compound 29, (S)-2-[[[4-(3-methoxylpropoxy)-3-methyl-2-pyridyl]methyl]sulfinyl]-6,7-dihydro-3H-benzofuro[5,6-d]imidazole]",Gastric juice volume,[2]; [6],3.43 ± 1.11 mL
same,Volume of supernatant of gastric juice,[2]; [6],2.70 ± 1.04 mL
same,Acidity degree (pH value),[2]; [7],3.75 pH value
same,Total acid output,[2]; [7],0.0178 mmol/h
same,Total acidity degree,[2]; [7],37.85 mmol/L
same,clearance,"[3]; male, Wistar, rat, in vivo, rats, I.V, 5 mg/kg, read-out: CL (converted)",21.4 mL/min/kg
same,half-life,"[3]; male, Wistar, rat, in vivo, rats, I.V, 5 mg/kg, read-out: T½ (converted)",13.4 min
same,Vd,"[3]; male, Wistar, rat, in vivo, rats, I.V, 5 mg/kg, read-out: Vss",0.289 L/kg
same,bioavailability,"[3]; male, Wistar, rat, in vivo, po, rats, P.O 5 mg/kg vs I.V 5 mg/kg, read-out: F % (absolute bioavailability)",49.2%
same,AUC(0-inf),"[3]; male, Wistar, rat, in vivo, po, rats, P.O, 5 mg/kg, read-out: AUCinf",1740 ng·h/mL
same,Cmax,"[3]; male, Wistar, rat, in vivo, po, rats, P.O, 5 mg/kg, read-out: Cmax",5780 ng/mL
same,Tmax,"[3]; male, Wistar, rat, in vivo, po, rats, P.O, 5 mg/kg, read-out: Tmax",4.98 min
same,apparent oral clearance (CL/F),"[3]; rats, P.O, 5 mg/kg",53.77 mL/min/kg
same,In vivo pharmacokinetic properties (conclusion),"[3]; rats, Tables 8 and 9",good in vivo pharmacokinetic properties
"COc1c(C)cnc(C[S+]([O-])c2nc3cc4c(cc3[nH]2)OCO4)c1C (stereo not shown) [Compound 81, reference compound]",Esophagitis index,[1],0.83 ± 1.60
same,Protection effect on reflux esophagitis in rats (conclusion),[1]; 20 mg/kg,no protection effect
same,Injury status,[1]; 20 mg/kg,Normal
same,Esophagus injury score,"[1]; 20 mg/kg, female rats",0 (2×) and 1 (1 score for injury area of 1-25%)
same,Esophagus injury score,"[1]; 20 mg/kg, male rats",4 (4 scores for injury area exceeding 75% or perforation) and 0 (2×)
same,Total acidity degree,[2]; [10],71.27 ± 16.51 mmol/L

# From patent US9315513B2, “Benzimidazole derivatives and their pharmaceutical compositions and uses” (XUANZHU PHARMA CO., LTD., priority 2010, dated 2016)
